{
  "source": "paper PMC3277211",
  "about": "(Journal of the American Chemical Society, 2011)",
  "origin": "cited, not measured here",
  "key": {"S. agalactiae COH-1": {"test_system": "S. agalactiae COH-1", "conditions": "included for comparison"}, "[1]": {"test_system": "P. aeruginosa P84L PAS2008", "conditions": "P. aeruginosa PAO1 LepB(P84L) PAS2008; included for comparison"}, "S. pneumoniae R800": {"test_system": "S. pneumoniae R800", "conditions": "included for comparison"}, "S. aureus NCTC 8325": {"test_system": "S. aureus NCTC 8325", "conditions": "S. aureus NCTC 8325 wild type; included for comparison"}, "S. epidermidis RP62A": {"test_system": "S. epidermidis RP62A", "conditions": "included for comparison"}, "R. opacus DSM 1069": {"test_system": "R. opacus DSM 1069", "conditions": "included for comparison"}, "S. pyogenes MGAS-1": {"test_system": "S. pyogenes MGAS-1", "conditions": "included for comparison"}, "C. glutamicum DSM 44475": {"test_system": "C. glutamicum DSM 44475", "conditions": "included for comparison"}, "P. aeruginosa PAO1": {"test_system": "P. aeruginosa PAO1", "conditions": "P. aeruginosa PAO1 wild type; included for comparison"}, "E. coli P84L PAS0260": {"test_system": "E. coli P84L PAS0260", "conditions": "E. coli MG1655 LepB(P84L) PAS0260; included for comparison"}, "S. aureus P29S PAS8001": {"test_system": "S. aureus P29S PAS8001", "conditions": "S. aureus NCTC 8325 SpsB(P29S) PAS8001; included for comparison"}},
  "data": [
    {"substance": "Arylomycin A-C16", "values": [
      {"measurement": "MIC", "setting": "S. agalactiae COH-1", "result": ">128", "unit": "µg/mL"},
      {"measurement": "MIC", "setting": "[1]", "result": 8, "unit": "µg/mL"},
      {"measurement": "MIC", "setting": "S. pneumoniae R800", "result": 8, "unit": "µg/mL"},
      {"measurement": "MIC", "setting": "S. aureus NCTC 8325", "result": ">128", "unit": "µg/mL"},
      {"measurement": "MIC", "setting": "S. epidermidis RP62A", "result": 0.25, "unit": "µg/mL"},
      {"measurement": "MIC", "setting": "R. opacus DSM 1069", "result": 2, "unit": "µg/mL"},
      {"measurement": "MIC", "setting": "S. pyogenes MGAS-1", "result": 8, "unit": "µg/mL"},
      {"measurement": "MIC", "setting": "C. glutamicum DSM 44475", "result": 4, "unit": "µg/mL"},
      {"measurement": "MIC", "setting": "P. aeruginosa PAO1", "result": ">128", "unit": "µg/mL"},
      {"measurement": "MIC", "setting": "E. coli P84L PAS0260", "result": 2, "unit": "µg/mL"},
      {"measurement": "MIC", "setting": "S. aureus P29S PAS8001", "result": 2, "unit": "µg/mL"}
    ]}
  ]
}
